Measurements as given in ChEMBL document CHEMBL5291721, “A preclinical secondary pharmacology resource illuminates target-adverse drug reaction associations of marketed drugs” (Nat Commun, 2023).

What was measured:
Adenosine receptor A2a = Adenosine receptor A2a (Homo sapiens, UniProt P29274)
[1] = molecular target: Beta-1 adrenergic receptor (Homo sapiens, UniProt P08588); format: functional
[2] = molecular target: T1, Type-1 angiotensin II receptor (Homo sapiens, UniProt P30556)
T1 sequence (P30556 whole entry): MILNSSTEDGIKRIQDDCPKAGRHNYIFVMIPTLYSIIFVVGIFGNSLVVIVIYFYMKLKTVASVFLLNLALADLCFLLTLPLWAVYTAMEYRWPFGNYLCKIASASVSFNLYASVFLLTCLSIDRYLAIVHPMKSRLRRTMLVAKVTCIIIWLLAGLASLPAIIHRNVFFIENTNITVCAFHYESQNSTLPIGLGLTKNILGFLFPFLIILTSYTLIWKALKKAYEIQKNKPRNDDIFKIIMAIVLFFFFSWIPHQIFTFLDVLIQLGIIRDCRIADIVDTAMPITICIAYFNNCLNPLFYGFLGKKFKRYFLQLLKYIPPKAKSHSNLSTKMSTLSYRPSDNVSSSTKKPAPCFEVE

[3] = molecular target: T2, Cholecystokinin receptor type A (Homo sapiens, UniProt P32238)
T2 sequence (P32238 whole entry): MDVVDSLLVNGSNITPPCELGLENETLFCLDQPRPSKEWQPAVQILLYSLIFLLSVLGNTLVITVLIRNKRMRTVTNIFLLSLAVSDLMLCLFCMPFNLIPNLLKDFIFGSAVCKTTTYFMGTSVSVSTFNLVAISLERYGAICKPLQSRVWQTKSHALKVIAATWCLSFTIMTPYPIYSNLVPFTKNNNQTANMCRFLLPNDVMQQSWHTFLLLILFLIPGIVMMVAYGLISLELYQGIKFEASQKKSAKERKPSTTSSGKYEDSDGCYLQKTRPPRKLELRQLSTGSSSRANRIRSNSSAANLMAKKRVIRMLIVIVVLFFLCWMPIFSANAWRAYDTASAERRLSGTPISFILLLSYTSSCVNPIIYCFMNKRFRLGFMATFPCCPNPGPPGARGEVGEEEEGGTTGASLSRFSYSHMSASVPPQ

[4] = molecular target: T3, Gastrin/cholecystokinin type B receptor (Homo sapiens, UniProt P32239)
T3 sequence (P32239 whole entry): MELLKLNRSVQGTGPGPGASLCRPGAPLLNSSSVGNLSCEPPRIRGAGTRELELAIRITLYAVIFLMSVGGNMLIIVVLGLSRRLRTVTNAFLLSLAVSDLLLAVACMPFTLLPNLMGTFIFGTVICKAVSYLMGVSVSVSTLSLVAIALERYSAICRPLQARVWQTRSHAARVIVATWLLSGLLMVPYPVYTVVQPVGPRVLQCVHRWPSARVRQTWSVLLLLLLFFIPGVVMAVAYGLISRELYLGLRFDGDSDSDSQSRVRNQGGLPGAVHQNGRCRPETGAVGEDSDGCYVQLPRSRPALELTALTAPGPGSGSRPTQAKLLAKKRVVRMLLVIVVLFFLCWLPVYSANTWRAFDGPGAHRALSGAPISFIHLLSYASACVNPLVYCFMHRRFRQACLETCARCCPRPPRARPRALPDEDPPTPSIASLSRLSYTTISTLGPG

Cannabinoid receptor 1 = Cannabinoid receptor 1 (Homo sapiens, UniProt P21554); format: functional, cell-based
[5] = molecular target: Growth hormone secretagogue receptor type 1 (Homo sapiens, UniProt Q92847)
[6] = molecular target: Glutamate receptor ionotropic, NMDA 1 (Rattus norvegicus, UniProt P35439)
Histamine H2 receptor = Histamine H2 receptor (Homo sapiens, UniProt P25021); format: functional, cell-based
[7] = molecular target: T4, 5-hydroxytryptamine receptor 1A (Homo sapiens, UniProt P08908); format: functional, cell-based
T4 sequence (P08908 whole entry): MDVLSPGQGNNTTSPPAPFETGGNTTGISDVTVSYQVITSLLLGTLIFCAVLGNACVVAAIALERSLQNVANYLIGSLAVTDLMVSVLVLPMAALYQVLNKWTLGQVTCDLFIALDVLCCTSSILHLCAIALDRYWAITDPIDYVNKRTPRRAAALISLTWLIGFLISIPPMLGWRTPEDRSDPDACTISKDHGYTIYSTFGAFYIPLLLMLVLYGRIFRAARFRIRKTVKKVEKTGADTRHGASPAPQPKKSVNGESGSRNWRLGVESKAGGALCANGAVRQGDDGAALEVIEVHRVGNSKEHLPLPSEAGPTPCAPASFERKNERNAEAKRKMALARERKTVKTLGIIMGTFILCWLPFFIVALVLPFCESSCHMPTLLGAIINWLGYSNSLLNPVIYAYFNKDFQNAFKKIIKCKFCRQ

[8] = molecular target: 5-hydroxytryptamine receptor 2A (Homo sapiens, UniProt P28223); format: functional, cell-based
[9] = molecular target: 5-hydroxytryptamine receptor 2B (Homo sapiens, UniProt P41595); format: functional, cell-based
[10] = molecular target: Delta-type opioid receptor (Homo sapiens, UniProt P41143)
Thromboxane A2 receptor = molecular target: T5, Thromboxane A2 receptor (Homo sapiens, UniProt P21731)
T5 sequence (P21731 whole entry): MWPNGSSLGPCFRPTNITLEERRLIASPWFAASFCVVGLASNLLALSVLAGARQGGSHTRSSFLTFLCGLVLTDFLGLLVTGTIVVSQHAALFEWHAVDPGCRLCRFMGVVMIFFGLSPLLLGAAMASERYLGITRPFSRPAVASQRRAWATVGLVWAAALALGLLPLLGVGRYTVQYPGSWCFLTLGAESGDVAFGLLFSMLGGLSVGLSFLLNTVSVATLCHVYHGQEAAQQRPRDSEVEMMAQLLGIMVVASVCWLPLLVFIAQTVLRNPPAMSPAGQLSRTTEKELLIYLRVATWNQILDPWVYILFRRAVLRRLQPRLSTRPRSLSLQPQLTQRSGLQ

[11] = molecular target: Sodium-dependent serotonin transporter (Homo sapiens, UniProt P31645)
[12] = molecular target: cGMP-inhibited 3',5'-cyclic phosphodiesterase 3A (Homo sapiens, UniProt Q14432); format: functional
Also: assay procedure not described here.

Adenosine receptor A2a, sequence (P29274 whole entry): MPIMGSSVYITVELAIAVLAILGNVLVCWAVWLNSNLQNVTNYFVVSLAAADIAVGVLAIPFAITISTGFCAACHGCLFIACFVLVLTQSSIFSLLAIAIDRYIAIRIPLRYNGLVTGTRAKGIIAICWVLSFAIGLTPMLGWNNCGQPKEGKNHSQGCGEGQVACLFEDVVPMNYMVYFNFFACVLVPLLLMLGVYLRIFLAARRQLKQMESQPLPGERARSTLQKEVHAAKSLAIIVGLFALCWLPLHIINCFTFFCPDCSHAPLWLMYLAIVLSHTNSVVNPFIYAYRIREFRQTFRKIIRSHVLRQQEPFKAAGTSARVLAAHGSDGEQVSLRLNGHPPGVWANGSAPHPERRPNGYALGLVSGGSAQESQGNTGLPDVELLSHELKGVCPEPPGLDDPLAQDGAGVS
Delta-type opioid receptor, sequence (P41143 whole entry): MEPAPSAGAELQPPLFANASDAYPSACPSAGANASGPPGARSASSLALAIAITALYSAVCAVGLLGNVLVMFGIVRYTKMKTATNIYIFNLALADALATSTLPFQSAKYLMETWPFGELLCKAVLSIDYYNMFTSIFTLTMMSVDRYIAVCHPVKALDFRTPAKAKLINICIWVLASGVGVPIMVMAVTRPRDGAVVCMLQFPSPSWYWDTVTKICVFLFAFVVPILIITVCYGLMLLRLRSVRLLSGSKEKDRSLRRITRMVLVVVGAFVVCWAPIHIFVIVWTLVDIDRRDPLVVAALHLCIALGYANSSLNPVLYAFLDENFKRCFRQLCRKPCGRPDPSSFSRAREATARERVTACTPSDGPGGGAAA
Beta-1 adrenergic receptor, sequence (P08588 whole entry): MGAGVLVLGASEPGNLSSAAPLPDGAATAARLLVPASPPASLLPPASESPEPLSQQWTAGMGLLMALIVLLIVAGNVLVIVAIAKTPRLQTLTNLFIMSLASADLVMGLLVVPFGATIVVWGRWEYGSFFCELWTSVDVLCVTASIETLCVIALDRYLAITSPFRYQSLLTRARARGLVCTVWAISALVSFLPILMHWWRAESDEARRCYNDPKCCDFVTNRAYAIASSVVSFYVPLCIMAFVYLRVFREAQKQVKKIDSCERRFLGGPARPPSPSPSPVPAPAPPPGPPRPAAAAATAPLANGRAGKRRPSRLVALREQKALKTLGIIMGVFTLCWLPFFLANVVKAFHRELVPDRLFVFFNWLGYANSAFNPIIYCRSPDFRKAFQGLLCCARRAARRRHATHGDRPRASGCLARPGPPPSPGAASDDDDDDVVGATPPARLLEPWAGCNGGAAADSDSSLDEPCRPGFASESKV
Sodium-dependent serotonin transporter, sequence (P31645 whole entry): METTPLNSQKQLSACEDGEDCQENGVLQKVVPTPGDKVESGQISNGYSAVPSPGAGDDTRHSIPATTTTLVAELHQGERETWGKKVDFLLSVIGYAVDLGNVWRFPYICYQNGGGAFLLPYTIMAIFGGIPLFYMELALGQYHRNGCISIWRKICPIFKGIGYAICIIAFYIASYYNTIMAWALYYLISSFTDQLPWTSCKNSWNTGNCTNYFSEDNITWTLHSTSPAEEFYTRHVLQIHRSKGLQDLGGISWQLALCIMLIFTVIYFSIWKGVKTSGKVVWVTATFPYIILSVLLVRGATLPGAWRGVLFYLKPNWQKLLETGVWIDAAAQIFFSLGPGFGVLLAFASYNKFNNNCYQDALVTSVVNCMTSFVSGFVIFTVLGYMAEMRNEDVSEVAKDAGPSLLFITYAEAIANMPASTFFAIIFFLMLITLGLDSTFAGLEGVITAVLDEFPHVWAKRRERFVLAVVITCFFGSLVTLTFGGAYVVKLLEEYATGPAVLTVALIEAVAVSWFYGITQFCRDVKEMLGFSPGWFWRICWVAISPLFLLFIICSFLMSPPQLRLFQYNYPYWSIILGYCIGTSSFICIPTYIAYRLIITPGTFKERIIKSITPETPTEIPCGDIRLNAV
Growth hormone secretagogue receptor type 1, sequence (Q92847 whole entry): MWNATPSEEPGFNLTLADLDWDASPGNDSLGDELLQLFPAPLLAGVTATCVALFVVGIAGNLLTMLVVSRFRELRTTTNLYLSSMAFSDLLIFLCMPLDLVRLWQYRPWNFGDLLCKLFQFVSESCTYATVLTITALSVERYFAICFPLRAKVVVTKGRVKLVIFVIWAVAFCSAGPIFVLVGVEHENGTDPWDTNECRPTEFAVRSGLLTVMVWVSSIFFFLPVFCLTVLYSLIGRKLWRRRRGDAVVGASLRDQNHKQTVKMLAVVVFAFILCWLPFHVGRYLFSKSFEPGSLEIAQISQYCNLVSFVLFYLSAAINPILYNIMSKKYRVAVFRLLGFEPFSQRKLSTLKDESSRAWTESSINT
5-hydroxytryptamine receptor 2B, sequence (P41595 whole entry): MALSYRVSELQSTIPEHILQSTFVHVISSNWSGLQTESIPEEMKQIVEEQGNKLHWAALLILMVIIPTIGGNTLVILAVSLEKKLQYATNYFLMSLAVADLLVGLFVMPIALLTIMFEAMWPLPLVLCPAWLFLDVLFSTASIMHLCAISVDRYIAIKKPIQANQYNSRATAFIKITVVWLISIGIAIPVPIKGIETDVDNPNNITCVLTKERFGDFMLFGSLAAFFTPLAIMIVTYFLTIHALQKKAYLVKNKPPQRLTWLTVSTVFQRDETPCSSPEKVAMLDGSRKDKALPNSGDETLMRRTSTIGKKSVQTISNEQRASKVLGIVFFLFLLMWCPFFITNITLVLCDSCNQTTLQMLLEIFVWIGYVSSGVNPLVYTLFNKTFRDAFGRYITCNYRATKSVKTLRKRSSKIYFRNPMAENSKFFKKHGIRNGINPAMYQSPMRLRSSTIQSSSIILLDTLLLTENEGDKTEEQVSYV
5-hydroxytryptamine receptor 2A, sequence (P28223 whole entry): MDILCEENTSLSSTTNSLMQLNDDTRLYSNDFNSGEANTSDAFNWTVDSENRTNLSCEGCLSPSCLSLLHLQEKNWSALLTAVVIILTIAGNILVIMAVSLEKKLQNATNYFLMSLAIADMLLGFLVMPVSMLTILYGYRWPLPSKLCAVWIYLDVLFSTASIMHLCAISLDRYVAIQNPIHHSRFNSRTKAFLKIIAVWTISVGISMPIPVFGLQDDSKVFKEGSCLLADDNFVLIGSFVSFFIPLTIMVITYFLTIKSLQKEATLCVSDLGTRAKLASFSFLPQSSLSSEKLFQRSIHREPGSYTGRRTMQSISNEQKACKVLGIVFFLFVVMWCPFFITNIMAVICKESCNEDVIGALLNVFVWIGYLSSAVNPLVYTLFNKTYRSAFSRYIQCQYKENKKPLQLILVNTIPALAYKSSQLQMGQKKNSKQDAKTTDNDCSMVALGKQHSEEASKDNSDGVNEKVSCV
cGMP-inhibited 3',5'-cyclic phosphodiesterase 3A, sequence (Q14432 whole entry): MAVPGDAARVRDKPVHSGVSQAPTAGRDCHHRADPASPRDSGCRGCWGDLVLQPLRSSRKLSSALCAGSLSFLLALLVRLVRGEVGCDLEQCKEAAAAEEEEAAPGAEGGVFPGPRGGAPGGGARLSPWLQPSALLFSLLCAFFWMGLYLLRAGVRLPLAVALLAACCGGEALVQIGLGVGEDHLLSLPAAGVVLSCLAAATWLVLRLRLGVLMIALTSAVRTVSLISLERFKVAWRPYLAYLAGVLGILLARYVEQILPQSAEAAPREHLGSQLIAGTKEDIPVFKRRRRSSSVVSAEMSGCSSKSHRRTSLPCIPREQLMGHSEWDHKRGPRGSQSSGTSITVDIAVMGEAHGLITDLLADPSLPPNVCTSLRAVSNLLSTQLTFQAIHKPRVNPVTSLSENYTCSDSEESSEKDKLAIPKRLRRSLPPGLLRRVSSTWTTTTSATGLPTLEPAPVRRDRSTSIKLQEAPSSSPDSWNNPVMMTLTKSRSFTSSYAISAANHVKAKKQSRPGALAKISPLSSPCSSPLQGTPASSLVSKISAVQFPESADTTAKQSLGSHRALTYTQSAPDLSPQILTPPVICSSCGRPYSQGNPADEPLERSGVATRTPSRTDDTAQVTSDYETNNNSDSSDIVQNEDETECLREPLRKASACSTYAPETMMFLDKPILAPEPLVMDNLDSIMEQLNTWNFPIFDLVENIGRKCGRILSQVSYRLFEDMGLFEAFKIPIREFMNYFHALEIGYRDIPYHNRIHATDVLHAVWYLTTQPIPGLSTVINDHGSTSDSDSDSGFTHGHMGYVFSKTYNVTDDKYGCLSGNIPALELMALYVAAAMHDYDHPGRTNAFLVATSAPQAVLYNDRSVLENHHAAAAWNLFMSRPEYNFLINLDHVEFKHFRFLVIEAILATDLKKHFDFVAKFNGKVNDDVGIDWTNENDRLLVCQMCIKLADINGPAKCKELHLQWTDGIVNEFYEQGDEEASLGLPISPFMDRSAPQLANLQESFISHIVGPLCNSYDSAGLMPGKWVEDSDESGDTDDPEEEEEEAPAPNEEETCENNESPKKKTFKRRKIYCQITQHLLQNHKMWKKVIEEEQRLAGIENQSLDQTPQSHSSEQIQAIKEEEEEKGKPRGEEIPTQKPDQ
Histamine H2 receptor, sequence (P25021 whole entry): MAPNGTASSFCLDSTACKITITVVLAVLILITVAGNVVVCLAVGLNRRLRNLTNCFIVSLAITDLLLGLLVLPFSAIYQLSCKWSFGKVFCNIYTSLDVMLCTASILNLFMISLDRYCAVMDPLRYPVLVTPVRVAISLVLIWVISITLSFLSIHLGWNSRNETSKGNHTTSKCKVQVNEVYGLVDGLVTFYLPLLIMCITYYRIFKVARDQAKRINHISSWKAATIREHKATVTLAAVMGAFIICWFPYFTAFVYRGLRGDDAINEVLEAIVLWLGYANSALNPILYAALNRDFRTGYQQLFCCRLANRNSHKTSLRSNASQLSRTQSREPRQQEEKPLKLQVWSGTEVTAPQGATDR

SMILES	AC50 (Adenosine receptor A2a) [µM]	AC50 [1] [µM]	AC50 [2] [µM]	AC50 [3] [µM]	AC50 [4] [µM]	AC50 (Cannabinoid receptor 1) [µM]	AC50 [5] [µM]	AC50 [6] [µM]	AC50 (Histamine H2 receptor) [µM]	AC50 [7] [µM]	AC50 [8] [µM]	AC50 [9] [µM]	AC50 [10] [µM]	AC50 (Thromboxane A2 receptor) [µM]	AC50 [11] [µM]	AC50 [12] [µM]
CN1C(=O)C(O)N=C(c2ccccc2)c2cc(Cl)ccc21 (stereo not drawn) [TEMAZEPAM]	> 30	> 10	> 30	> 30	> 30	> 30	> 30	> 10	> 10	> 10	> 30	> 10	> 30	> 30	> 10	3
COc1cc2c(N)nc(N3CCN(C(=O)OCC(C)(C)O)CC3)nc2c(OC)c1OC [TRIMAZOSIN]	> 30	> 30	> 30	> 30	> 30	> 30	> 30	> 30	> 30	22	> 30	> 30	> 30	> 30	> 30	> 30
CC(C)(C)C(=O)Oc1ccc(S(=O)(=O)Nc2ccccc2C(=O)NCC(=O)O)cc1	> 30	> 30	> 30	> 30	> 30	> 30	> 30	> 30	> 30	> 30	> 30	> 30	> 30	> 30	> 10	> 30
CN1C(=O)C(O)N=C(c2ccccc2Cl)c2cc(Cl)ccc21 (stereo not drawn) [LORMETAZEPAM]	> 30	> 30	> 30	> 30	> 30	> 30	> 30	> 30	> 30	> 30	> 30	> 30	> 30	> 30	> 30	> 10
O=C(O)CCCCCCNC1c2ccccc2CCc2ccccc21 [AMINEPTINE]	> 30	> 30	> 30	> 30	> 30	> 30	> 30	> 30	> 30	> 30	> 30	> 30	> 30	> 30	> 30	> 30
O=C(O)/C=C/c1ccc(Cn2ccnc2)cc1 [OZAGREL]	> 30	> 30	> 30	> 30	> 30	> 30	> 30	> 30	> 30	> 30	> 30	> 30	> 30	> 30	> 30	> 30
COc1ccc(CCN(C)CCCC(C#N)(c2cc(OC)c(OC)c(OC)c2)C(C)C)cc1OC (stereo not drawn) [GALLOPAMIL]	> 30	> 30	> 30	> 30	> 30	> 30	> 30	> 30	> 30	11	> 30	0.86	> 30	> 30	3	> 30
CCCc1nc(C(C)(C)O)c(C(=O)OCc2oc(=O)oc2C)n1Cc1ccc(-c2ccccc2-c2nnn[nH]2)cc1 [OLMESARTAN MEDOXOMIL]	> 10	> 10	0.0009	> 50	> 50	> 30	> 50	> 10	> 10	> 10	> 30	> 10	> 10	> 50	> 30	11
